Reference: patent US6395762B1, “Phenyl amino squarate and thiadiazole dioxide beta-3 adrenergic receptor agonists” (American Home Products Corporation, priority 2000, dated 2002)
Where a name gives a salt, the structure may show the parent alone. Read-outs that look alike come from different tables or passages of the source.

Tests used:
human β3-AR = molecular target: T1, human β3-AR (Homo sapiens, UniProt P13945); assay: cAMP accumulation (SPA) in CHO cells transfected with human β3-AR; type: cell-based; settings: for IA(β3): maximal response of compound relative to maximal response of isoproterenol at 10^−5 M
T1 construct: Full-length β3-AR clones (402 amino acids) containing the last 6 amino acids of hβ3-AR; expressed in transfected cells; host or cells: CHO (Chinese hamster ovary) cells
T1 sequence (P13945 whole entry): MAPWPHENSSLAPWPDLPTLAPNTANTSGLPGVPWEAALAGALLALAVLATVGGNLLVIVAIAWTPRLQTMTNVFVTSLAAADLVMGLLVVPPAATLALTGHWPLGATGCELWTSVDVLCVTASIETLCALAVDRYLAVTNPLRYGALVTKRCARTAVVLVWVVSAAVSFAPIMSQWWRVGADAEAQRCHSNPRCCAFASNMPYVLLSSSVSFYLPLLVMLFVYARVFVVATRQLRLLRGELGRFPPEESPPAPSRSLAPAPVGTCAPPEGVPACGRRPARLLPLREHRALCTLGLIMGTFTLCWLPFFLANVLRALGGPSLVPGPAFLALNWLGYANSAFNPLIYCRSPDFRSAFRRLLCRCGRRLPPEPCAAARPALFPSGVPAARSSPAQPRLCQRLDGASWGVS
Method: The ability of the compounds of this invention to treat or inhibit disorders related to insulin resistance or hyperglycemia was confirmed with representative compounds of this invention in the following standard pharmacological test procedures, which measured the binding selectivity of the β1-, β2-, and β3-AR. Binding to the receptors was measured in Chinese Hamster ovary (CHO) cells that were transfected with β1-, β2-, and β3-AR's. The following briefly summarizes the procedures used and results obtained.
Cloning of Human β3-AR Genomic DNA: cDNA was constructed by ligating four polymerase chain reaction (PCR) products using the following primers: an ATG-Narl fragment, sense primer 5′-[…]3′ and anti-sense primer 5′[…]3′; a Narl-Accl fragment, 5′[…]3′ as sense and 5′[…]3′ as anti-sense primer; an Accli—Styl fragment, sense primer 5′[…]3′ and anti-sense primer 5′[…]3′ and a Styl-TAG fragment, with sense primer 5′ […]3′ and anti-sense primer 5′ […]3′ . The corresponding primer sequences are described in Mantzoros, C. S., et.al., Diabetes, 1996, 45, 909-914. The four fragments are ligated into a pUC 18 plasmid (Gibco-BRL) and sequenced. Full-length β3-AR clones (402 amino acids) containing the last 6 amino acids of hβ3-AR are prepared with the β3-βARpcDNA3 from ATTC.
Binding Procedure: Clones expressing receptor levels of 70 to 110 fmoles/mg protein were used in the test procedures. CHO cells were grown in 24-well tissue culture plates in Dulbecco's Modified Eagle Media with 10% fetal bovine serum, MEM non-essential amino acids, Penicillin—Streptomycin and Geneticin. On the day of test procedure, growth medium was replaced with preincubation media (Dulbecco's Modified Eagle Media) and incubated for 30 minutes at 37° C. Pre-incubation medium was replaced with 0.2 ml treatment medium containing DMEM media containing 250 μM IBMX (isobutyl-1-methylxantine) plus 1 mM ascorbic acid with test compound dissolved in DMSO. Test compounds were assayed over a concentration range of 10^−9 M to 10^−5 M for β3-AR transfected cells and 10^−8 to 10^−4 M for β1-AR and β2-AR transfected cells. Isoproterenol (10^−5 M) was used as an internal standard for comparison of activity. Cells were incubated at 37° C. on a rocker for 30 min with the β3-AR transfected cells and 15 min with β1-AR and β2-AR transfected cells. Incubation was stopped by the addition of 0.2N HCl and the acid was neutralized with 2.5N NaOH. The plates, containing the cells and neutralized media, were stored at −20° C. until ready to test for cAMP using the SPA test kit (Amersham).
Data Analysis and Results: Data collected from the SPA test procedure were analyzed as percent of the maximal isoproterenol response at 10^−5 M. Activity curves were plotted using the SAS statistical and graphics software.

[1] = CHO cells transfected with human β3-AR
[2] = CHO cells transfected with human β3-AR, cAMP by SPA, 30 min at 37° C., 10^−9 M to 10^−5 M, read-out: EC50(β3)

Question: Which melting point does the source give for `CCCCCCCCNC1=NS(=O)(=O)N=C1Nc1ccc(CC(C)(C)NC[C@H](O)COc2ccc(O)cc2)cc1` (as salt: HCl) [Compound 4] here?
Answer: The melting point was 229.5 to 231.3 °C.

Question: With `CCCCCCCCCCNC1=NS(=O)(=O)N=C1Nc1ccc(CC(C)NC[C@H](O)COc2ccc(O)cc2)cc1` (stereo partly drawn) (as salt: HCl) [Compound 25, 4-((2S)-3-{2-[4-(4-Decylamino-1,1-dioxo-1H-1(lambda(6))-[1,2,5]thiadiazol-3-ylamino)-phenyl]-1-methyl-ethylamino}-2-hydroxy-propoxy)-phenol] as the compound, how does the melting point read?
Answer: Its melting point is 146 to 155 °C.

Question: Which melting point does the source give for `CC(Cc1ccc(NC2=NS(=O)(=O)N=C2NCC2(c3ccccc3)CCCC2)cc1)NC[C@H](O)COc1ccc(O)cc1` (stereo partly drawn) (as salt: HCl) [Compound 31, 4-{(2S)-3-[2-(4-{1,1-Dioxo-4-[(1-phenyl-cyclopentylmethyl)-amino]-1H-1(lambda(6))-[1,2,5]thiadiazol-3-ylamino}-phenyl)-1-methyl-ethylamino]-2-hydroxy-propoxy}-phenol] here?
Answer: The melting point was 162 to 165 °C.

Question: Which results are given for `CCCCNc1c(Nc2ccc(CC(C)NC[C@H](O)c3cccc(Cl)c3)cc2)c(=O)c1=O` (stereo partly drawn) [Compound 1, 3-Butylamino-4-(4-{2-[(2R)-2-(3-chloro-phenyl)-2-hydroxy-ethylamino]-propyl}-phenylamino)-cyclobut-3-ene-1,2-dione]?
Answer: EC50 (human β3-AR): 0.115 µM; IA(β3) (human β3-AR; [1]): 0.16; melting point: 176 to 179 °C

Question: What does the source list for `CCCCCCCCNC1=NS(=O)(=O)N=C1Nc1cccc(CC(C)NCC(O)c2cccc(Cl)c2)c1` [Compound 2, (1R)-1-(3-Chloro-phenyl)-2-{1-methyl-2-[3-(4-octylamino-1,1-dioxo-1H-1-.lambda(6).-[1,2,5]thiadiazol-3-ylamino)-phenyl-]-ethylamino}-ethanol]?
Answer: EC50 (human β3-AR; [2]): 0.198 µM; IA(β3) (human β3-AR; [1]): 0.42; melting point: 90 to 96 °C

Question: Which EC50 (human β3-AR; [2]) does the source give for `CCCCCCCCNC1=NS(=O)(=O)N=C1Nc1ccc(CCNC[C@H](O)COc2ccc(O)cc2)cc1` [Compound 5, 4-((2S)-2-Hydroxy-3-{2-[4-(4-octylamino-1,1-dioxo-1H-1.lambda(6).-[1,2,5]thiadiazol-3-ylamino)-phenyl]-ethylamino}-propoxy)-phenol] here?
Answer: The EC50 was 0.018 µM.

Question: And the “IA(β3)” value (human β3-AR; [1])?
Answer: The value was 0.75.

Question: And the melting point?
Answer: Its melting point is 98 °C (dec.).

Question: Which EC50 (human β3-AR; [2]) does the source give for `CCCCCCCCNC1=NS(=O)(=O)N=C1Nc1ccc(CC(C)NC[C@H](O)c2ccc(O)c(NS(C)(=O)=O)c2)cc1` (stereo partly shown) [Compound 6] here?
Answer: Its EC50 is 0.002 µM.

Question: What about the “IA(β3)” value (human β3-AR; [1]) of the same compound?
Answer: The value was 1.26.

Question: What about the melting point of the same compound?
Answer: Its melting point is 120 °C (dec.).

Question: For `CCCCCCNC(=O)Nc1ccc(C2(CNC3=NS(=O)(=O)N=C3Nc3ccc(CC(C)(C)NC[C@H](O)COc4ccc(O)cc4)cc3)CCCC2)cc1` [Compound 8, 1-Hexyl-3-[4-(1-{[4-(4-{2-[(2S)-2-hydroxy-3-(4-hydroxy-phenoxy)-propylamino]-2-methyl-propyl}-phenylamino)-1,1-dioxo-1H-1.lambda(6).-{1,2,5]thiadiazol-3-ylamino]-methyl}-cyclopentyl)-phenyl]-urea], which EC50 (human β3-AR; [2]) is on record?
Answer: The EC50 was 0.01 µM.

Question: And the “IA(β3)” value (human β3-AR; [1])?
Answer: Its value is 0.91.

Question: And the melting point?
Answer: The melting point was 154.5 to 158.5 °C.

Question: Which EC50 (human β3-AR; [2]) does the source give for `CCCCCCNC1=NS(=O)(=O)N=C1Nc1cccc(CC(C)NC[C@H](O)c2cccc(Cl)c2)c1` (stereo partly drawn) [Compound 9, (1R)-1-(3-Chloro-phenyl)-2-{2-[3-(4-hexylamino-1,1-dioxo-1H-1-.lambda(6) .-[1,2,5]thiadiazol-3-ylamino)-phenyl]-1-methyl-ethylamino}-ethanol] here?
Answer: The EC50 was 0.204 µM.

Question: And the “IA(β3)” value (human β3-AR; [1])?
Answer: The value was 0.74.

Question: And the melting point?
Answer: Its melting point is 90 to 96 °C.

Question: For `CCCCCCCCNc1c(Nc2ccc(CC(C)NC[C@H](O)c3cccc(Cl)c3)cc2)c(=O)c1=O` (stereo partly drawn) [Compound 10, 3-(4-{2-[(2R)-2-(3-Chloro-phenyl)-2-hydroxy-ethylamino]-propyl}-phenylamino)-4-octylamino-cyclobut-3-ene-1 2-dione], which EC50 (human β3-AR; [2]) is on record?
Answer: Its EC50 is 0.087 µM.

Question: What about the “IA(β3)” value (human β3-AR; [1]) of the same compound?
Answer: Its value is 0.71.

Question: What about the melting point of the same compound?
Answer: Its melting point is 173 to 175 °C.

Question: With “(2S)-1-(4-Benzyloxy-phenoxy)-3-{2-[4-(4-decylamino-1,1-dioxo-1H-1-. lambda(6).-[1,2,5]thiadiazol-3-ylamino)-phenyl]-1-methyl-ethylamino}-propan-2-ol [Compound 18]” as the compound, how does the “IA(β3)” value (human β3-AR; [1]) read?
Answer: Its value is 0.46.
